Test results as given in US9809808B2, “Antimicrobial agents” (KATHOLIEKE UNIVERSITEIT LEUVEN K.U. LEUVEN R&D, priority 2008, dated 2017).
Where two headings read alike, the source gives them in different places.

Test system: Burkholderia solanacearum
Format: cell-based
Conditions: 100 μg/ml undialyzed protein, 1 hour, room temperature

Molecule: phiKZgp144: SEQ ID NO: 1: unmodified modular endolysin originating from Pseudomonas aeruginosa phage φKZ [reference compound]
- Reduction [%] (relative inactivation): 0%

B1: POLY-gp144: SEQ ID NO: 35: phiKZgp144 (SEQ ID NO: 1) with N-terminal peptide stretch KRKKRKKRK (SEQ ID NO: 11) (protein)
chain: MGSKRKKRKKRKKVLRKGDRGDEVCQLQTLLNLCGYDVGKPDGIFGNNTFNQVVKFQKDNCLDSDGIVGKNTWAELFSKYSPPIPYKTIPMPTANKSRAAATPVMNAVENATGVRSQLLLTFASIESAFDYEIKAKTSSATGWFQFLTGTWKTMIENYGMKYGVLTDPTGALRKDPRISALMGAELIKENMNILRPVLKREPTDTDLYLAHFFGPGAARRFLTTGQNELAATHFPKEAQANPSIFYNKDGSPKTIQEVYNLMDGKVAAHRK
modifications: POLY-gp144
- Reduction [%] (relative inactivation) (listed as POLYKZ144): 99-99.9%
